Data: patent US20200352931A1, “OXALAMIDES AS MODULATORS OF INDOLEAMINE 2,3-DIOXYGENASE” (PHENEX DISCOVERY VERWALTUNGS-GMBH, priority 2017, published 2020)

Biological target: T1, Indoleamine 2,3-Dioxygenase (IDO1) in SKOV-3 cells (Homo sapiens, UniProt P14902)
T1 construct: endogenous in cells; host or cells: SKOV-3 (ATCC HTB-77), stimulated with 50 ng/ml interferon gamma
Test: SKOV-3 cellular indoleamine 2,3-dioxygenase assay
Conditions: 50 ng/ml Interferon gamma, 100 μM L-Tryptophan, 24 hours, N-Formylkynurenin fluorescence, read-out: cell based activity (IC50)
Method: SKOV-3 Cellular Indoleamine 2,3-Dioxygenase Assay
SKOV-3 cells were obtained from the American Type Culture Collection (ATCC® HTB-77™) and maintained in McCoy's medium (Pan Biotech) supplemented with 10% fetal bovine serum and 1% Penicilin/Streptomycin. Cells were kept at 37° C. in a humidified incubator with 5% CO2. For assay preparation, cells were seeded at a density of 2*10^5/m into black clear bottom 96 well plates in 100 μl medium/well supplemented with 50 ng/ml Interferon gamma (eBioscience, Thermo Fisher Scientific). After cells fully adhered to the plate, dilution series of compounds were added in medium containing additional L-Tryptophan to a final L-Tryptophan concentration of 100 μM. The cells were incubated for 24 hours. Detection of produced N-Formylkynurenin was performed by addition of 3-Methylpiperidine to a final concentration of 200 mM. The plates were sealed and heated to 65° C. for 20 minutes in a water bath. After cooling the fluorescence of each well was recorded with a Victor™ X4 (PerkinElmer) plate reader at an emission wavelength of 535 nm and excitation at 405 nm (Tomek et al.; Anal Bioanal Chem (2013) 405:2515-2524., Tomek et al.; Biochim Biophys Acta. 2015 September; 1850(9):1772-80).

T1 sequence (P14902 whole entry): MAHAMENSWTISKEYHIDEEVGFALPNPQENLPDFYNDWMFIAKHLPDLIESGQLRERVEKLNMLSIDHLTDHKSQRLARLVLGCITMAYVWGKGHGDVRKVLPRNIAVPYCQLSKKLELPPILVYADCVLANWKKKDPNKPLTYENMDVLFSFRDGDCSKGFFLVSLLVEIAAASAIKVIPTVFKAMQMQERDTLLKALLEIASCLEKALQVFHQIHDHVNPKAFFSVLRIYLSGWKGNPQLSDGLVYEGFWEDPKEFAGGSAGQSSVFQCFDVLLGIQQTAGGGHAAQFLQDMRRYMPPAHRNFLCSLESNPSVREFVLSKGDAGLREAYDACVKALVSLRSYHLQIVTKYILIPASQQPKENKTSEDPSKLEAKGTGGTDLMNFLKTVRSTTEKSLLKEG

IC50 [nM] | SMILES
< 100 | O=C(Nc1ccc(Cl)cc1)C(=O)N1CC[C@@H](c2ccnc3ccc(F)cc23)[C@H](O)C1 (single isomer, unassigned) [Example 10a, trans-N-(4-Chlorophenyl)-2-(4-(6-fluoroquinolin-4-yl)-3-hydroxypiperidin-1-yl)-2-oxoacetamide]
100 to 1000 | Cc1cc(Cl)ccc1NC(=O)C(=O)N1CCC(c2ccnc3ccc(F)cc23)CC1 [1/32]
> 1000 | O=C(N[C@@H]1CCc2ccccc21)C(=O)N1CCC(c2ccnc3ccc(F)cc23)CC1 [8/1]
> 1000 | CN(C(=O)C(=O)N1CCC(c2ccnc3ccc(F)cc23)CC1)c1ccc(Cl)cn1 [2/3]

Second part, the compound before the results:

SMILES | IC50 [nM]
CC1(C)CC(c2ccnc3ccccc23)CCN1C(=O)C(=O)Nc1ccc(Cl)cn1 (stereo not drawn) [1/11] | < 100
O=C(Nc1ccc(Cl)cn1)C(=O)N1CCC(c2ccc(C(=O)O)c3ccccc23)CC1 [Example 9, 4-(1-(2-((5-Chloropyridin-2-yl)amino)-2-oxoacetyl)piperidin-4-yl)-1-naphthoic Acid] | > 1000
